US20090042849A1, “Phosphorylation of 5-lipoxygenase at ser523 and uses thereof” (priority 2006, published 2009)
Entries after “also recorded” stand apart in the source; their conditions may differ.

Tests used:
5LO [1] = test: immunoblotting of 5LO in cytosolic, membranous and nuclear fractions of myocardial cells; assay type: in vivo; conditions: rat myocardium
Experimental: Rats received: 1) […] (20 mg/kg) or 6) water alone (control). PIO and ATV were suspended in water and administered by gastric gavage once daily for 3 days; H-89 was dissolved in DMSO (final concentration 5% v/v) and injected intraperitoneally on the third day. Rats in groups 5 and 6 received water by gastric gavage once daily for 3 days. Rats in groups 1, 2 and 6 received intraperitoneal inkection of DMSO 5%. Sixteen hours after the injection, rats were euthanized and the hearts explanted for further analyses. In another experiment, rats received 3-day pretreatment with: 1) […]); or 5) LPS (10 mg/kg). Myocardial samples (0.25 g) were homogenized, mixed with Buffer A Mix [Hepes (pH 7.9) 10 mM, KCl 10 mM, EDTA 10 mM, DTT 100 mM, protease inhibitor cocktail, and IGEPAL 10%, (Sigma, St Lois, Mo.)], homogenized again and incubated for 15 min on ice, and centrifuged at 850×g for 10 min at 4° C. The supernatant was discharged, Buffer A Mix was added again and the samples incubated for an additional 15 min on ice, and centrifuged at 15,000×g for 3 min at 40 C. The supernatant contains the cytosolic fraction was collected. The pellet was resuspended in 150 μl of Buffer B Mix [Hepes (pH 7.9) 20 mM, NaCl 0.4M, EDTA 1 mM, glycerol 10%, protease inhibitor cocktail, and IGEPAL 10%], the tubes were shaked on ice at 200 rpm for 2 h, centrifuged at 15,000×g for 5 min at 4° C., and supernatants were collected as the nuclear fraction. […] The hearts were rapidly explanted, rinsed in cold PBS (pH 7.4), containing 0.16 mg/ml heparin to remove red blood cells and clots, frozen in liquid nitrogen and stored at -70° C. Myocardial samples from the anterior left ventricular wall were homogenized in RIPA lysis buffer (Santa Cruz Biotechnology, Santa Cruz, Calif.) and centrifuged at 14,000 rpm for 15 min at 4° C. The supernatant was collected and the total protein concentration was determined using the Lowry protein assay. […] The protein samples with loading buffer were run in 4-20% Tri-HCl Ready Gel at a 100V for 2 h until the desired molecular weight bands were separated. After electrophoresis, the gel was equilibrated in transfer buffer (25 mM Tris, 193 mM glycine, 0.1% SDS and 10% methanol) and the proteins were transferred to nitrocellulose membrane. The protein signals were quantified by an image-scanning-densitometer and the strength of each protein signal was normalized to the corresponding b-actin stain signal. Data are expressed as a ratio between the protein and the corresponding b-actin signal density.

rat infarct model = test: rat infarct model, infarct size; assay type: in vivo; conditions: ATV 2 mg/kg/d, cilostazol 20 mg/kg/d, alone or combined
Experimental: The effects of cilostazol (Pletal) and atorvastatin on myocardial protection was measured in a rat infarct model. Pletal is a phosphodiesterase III inhibitor, thus increasing intracellular cAMP levels. cAMP activates PKA. ATV at 2 mg/kg/d had no effect. Cilostazol 20 mg/kg/d reduced infarct size. However, when combined with ATV 2 mg/kg/d the effect was much greater. There are 8 rats in the control and ATV 2 mg/kg/d groups and 6 rats in the cilostazol and the combination groups. Infarct size in the ATV 2 mg/kg/d (30.48±1.46%) is not different from the controls (33.97±2.76%).

COX2 = test: immunofluorescence of COX2 in adult rat cardiac myocytes; assay type: cell-based
Experimental: (§1) Cardiac myocytes were isolated from adult Sprague-Dawley rats (250-300 g, male). Animals were heparinized (1,000-2,000 units i.p.) 5 min before being anesthetized with ketamine (100 mg/kg) and xylazine (10 mg/kg), and the hearts were removed and placed in ice-cold heart media solution (in mmol/l: 112 NaCl, 5.4 KCl, 1 MgCl2, 9 NaH2PO4, and 11.1 D-glucose; supplemented with 10 HEPES, 30 taurine, 2 DL-carnitine, and 2 creatine, pH. 7.4). The hearts were perfused retrogradely in a Langendorff apparatus with Ca^2+-free heart media for 5 min at 5 ml/min at 37° C., followed by perfusion with Ca^2+-free heart media containing collagenase II, 210 U/mg (Worthington, Lakewood, N.J.) for 20 min. After perfusion, both ventricles were removed from the heart and minced in collagenase II-containing heart media for 10-15 min. The cell solution was then washed several times to remove collagenase II and reexposed to 1.2 mM Ca2^+ over 25 min to produce Ca2^+-tolerant cardiac myocytes. […]
(§2) Immunofluorescent labeling was performed on paraffin sections (5-μm) of 4% formaldehyde-fixed rat cardiac tissue, as described previously (22). […] All the slides were viewed under an Olympus BX51 microscope [images recorded by a DP70 Digital camera (Olympus Optical Co., Ltd., Tokyo, Japan)] or confocal microscope (Bio-Rad 2100 (Hercules, Calif.).

5LO [2] = test: immunofluorescence of 5LO in adult rat cardiomyocyte cultures; assay type: cell-based; conditions: PIO 10 μM, ATV 10 μM, H-89 0.1 μM, 12 hours
Experimental: as §1, §2

15ELXA = 15ELXA levels in adult rat cardiac myocytes (ELISA); assay type: cell-based
[3] = PIO 10 μM, ATV 10 μM, H-89 0.1 μM, 12 hours

SMILES	5LO levels in the cytosolic fraction (5LO [1])	5LO levels in the membranous fraction (5LO [1])	Infarct size (rat infarct model) [%]	effect on infarct size (in words) (rat infarct model)	effect on the increased expression of COX2 by PIO+ATV (COX2; H-89 0.1 μM with PIO+ATV)	COX2 expression (COX2; [3])	5LO expression and localization in cardiomyocytes (5LO [2])	effect on the PIO+ATV augmentation of 15ELXA levels (15ELXA; H-89 0.1 μM with PIO+ATV)	levels of 15ELXA (15ELXA; [3])
CC(C)c1c(C(=O)Nc2ccccc2)c(-c2ccccc2)c(-c2ccc(F)cc2)n1CCC(O)CC(O)CC(=O)O (centres unmarked) [ATV, 7-[2-(4-fluorophenyl)-5-(1-methylethyl)-3-phenyl-4-(phenylcarbamoyl)-1H-pyrrol-1-yl]-3,5-dihydroxy-heptanoic acid]	small, yet significant increase	no detectable effect	30.48±1.46	no effect	–	–	–	–	–
O=S(=O)(NCCNC/C=C/c1ccc(Br)cc1)c1cccc2cnccc12 [H-89]	no significant effect	no significant effect	–	–	did not affect; also recorded: no effect	no effect	no effect	attenuated	no effect
